Here are results for 21 molecules from ChEMBL document CHEMBL3044821, “Microwave-induced CAN promoted atom-economic synthesis of 1H-benzo[b]xanthene and 4H-benzo[g]chromene derivatives of N-allyl quinolone and their antimicrobial activity” (2013).

≈ marks a conversion by molar mass, not a printed value.

Type in all cases: functional
The subject of one assay is Streptococcus pyogenes. Put plainly: Antibacterial activity against Streptococcus pyogenes MTCC 442 assessed as growth inhibition after 24 to 48 hr by NCCLS broth microdilution method. (In general: Broth dilution looks for growth in wells or tubes with falling amounts of substance.)
For another assay, the system named is Aspergillus clavatus. Put plainly: Antifungal activity against Aspergillus clavatus MTCC 1323 assessed as growth inhibition after 24 to 48 hr by NCCLS broth microdilution method.
The subject of the next assay is Candida albicans. Put plainly: Antifungal activity against Candida albicans MTCC 227 assessed as growth inhibition after 24 to 48 hr by NCCLS broth microdilution method.
The next assay concerns Staphylococcus aureus. Put plainly: Antibacterial activity against Staphylococcus aureus MTCC 96 assessed as growth inhibition after 24 to 48 hr by NCCLS broth microdilution method.
The next assay relates to Pseudomonas aeruginosa. Put plainly: Antibacterial activity against Pseudomonas aeruginosa MTCC 1688 assessed as growth inhibition after 24 to 48 hr by NCCLS broth microdilution method.
The test system of another assay is Aspergillus niger. The assay is described as follows: Antifungal activity against Aspergillus niger MTCC 282 assessed as growth inhibition after 24 to 48 hr by NCCLS broth microdilution method.
The next assay deals with Escherichia coli. Put plainly: Antibacterial activity against Escherichia coli MTCC 443 assessed as growth inhibition after 24 to 48 hr by NCCLS broth microdilution method.

Turning to `C=CCn1c(=O)c(C2C3=C(CC(C)(C)CC3=O)OC3=C2C(=O)c2ccccc2C3=O)cc2cc(C)ccc21` (stereo not drawn), the minimum inhibitory concentration (MIC) (in general, the smallest concentration in the dilution series that meets the test's criterion for growth inhibition) in the assay on Streptococcus pyogenes is 250 µg/mL (≈ 494 µM); in the assay with Aspergillus clavatus it was 1000 µg/mL (≈ 1980 µM); in the assay with Candida albicans, > 1000 µg/mL; in the assay on Staphylococcus aureus, 500 µg/mL (≈ 989 µM); in the assay on Pseudomonas aeruginosa it was 500 µg/mL (≈ 989 µM); in the assay on Aspergillus niger it was 125 µg/mL (≈ 247 µM). Also, the minimal inhibitory concentration (MIC) in the assay with Escherichia coli is 62.5 µg/mL (≈ 124 µM).

With `C=CCn1c(=O)c(C2C(C#N)=C(N)OC3=C2C(=O)c2ccccc2C3=O)cc2cc(OC)ccc21` (stereo not drawn), the minimal inhibitory concentration (MIC) was 200 µg/mL (≈ 430 µM) with Streptococcus pyogenes; 1000 µg/mL (≈ 2150 µM) with Aspergillus clavatus; 1000 µg/mL (≈ 2150 µM) in the assay with Candida albicans; 250 µg/mL (≈ 537 µM) in the assay with Staphylococcus aureus; 200 µg/mL (≈ 430 µM) with Pseudomonas aeruginosa; > 1000 µg/mL with Aspergillus niger. Further, the MIC in the assay on Escherichia coli stood at 125 µg/mL (≈ 269 µM).

As for `C=CCn1c(=O)c(C2C3=C(CC(C)(C)CC3=O)OC3=C2C(=O)c2ccccc2C3=O)cc2cc(Cl)ccc21` (stereo not drawn), the MIC with Streptococcus pyogenes was 500 µg/mL (≈ 951 µM); in the assay on Aspergillus clavatus it was 100 µg/mL (≈ 190 µM); in the assay with Candida albicans, > 1000 µg/mL; in the assay with Staphylococcus aureus it was 200 µg/mL (≈ 380 µM); with Pseudomonas aeruginosa, 250 µg/mL (≈ 475 µM); in the assay with Aspergillus niger, 1000 µg/mL (≈ 1900 µM). For the same molecule, the MIC in the assay on Escherichia coli turned out to be 200 µg/mL (≈ 380 µM).

For `C=CCn1c(=O)c(C2C(C(=O)OC(C)C)=C(N)OC3=C2C(=O)c2ccccc2C3=O)cc2cc(Cl)ccc21` (stereo not drawn), the MIC is 500 µg/mL (≈ 942 µM) in the assay with Streptococcus pyogenes; 250 µg/mL (≈ 471 µM) in the assay on Aspergillus clavatus; 500 µg/mL (≈ 942 µM) with Candida albicans; 500 µg/mL (≈ 942 µM) with Staphylococcus aureus; 100 µg/mL (≈ 188 µM) in the assay on Pseudomonas aeruginosa; 100 µg/mL (≈ 188 µM) in the assay on Aspergillus niger. In addition, in the assay with Escherichia coli, the MIC worked out at 200 µg/mL (≈ 377 µM).

`C=CCn1c(=O)c(C2C(C#N)=C(N)OC3=C2C(=O)c2ccccc2C3=O)cc2ccccc21` (stereo not drawn): the MIC was 250 µg/mL (≈ 574 µM) in the assay with Streptococcus pyogenes; > 1000 µg/mL with Aspergillus clavatus; 250 µg/mL (≈ 574 µM) in the assay with Candida albicans; 62.5 µg/mL (≈ 144 µM) with Staphylococcus aureus; 250 µg/mL (≈ 574 µM) in the assay with Pseudomonas aeruginosa; 500 µg/mL (≈ 1150 µM) in the assay with Aspergillus niger. For the same molecule, the MIC in the assay on Escherichia coli came out at 100 µg/mL (≈ 230 µM).

Take `C=CCn1c(=O)c(C2C(C#N)=C(N)OC3=C2C(=O)c2ccccc2C3=O)cc2cc(C)ccc21` (stereo not drawn): the MIC in the assay on Streptococcus pyogenes amounted to 100 µg/mL (≈ 222 µM); with Aspergillus clavatus it was 1000 µg/mL (≈ 2220 µM); with Candida albicans it was 1000 µg/mL (≈ 2220 µM); in the assay on Staphylococcus aureus, 200 µg/mL (≈ 445 µM); with Pseudomonas aeruginosa, 500 µg/mL (≈ 1110 µM); in the assay on Aspergillus niger, 500 µg/mL (≈ 1110 µM). Also, the minimal inhibitory concentration (MIC) in the assay with Escherichia coli worked out at 250 µg/mL (≈ 556 µM).

Take `C=CCn1c(=O)c(C2C3=C(CCCC3=O)OC3=C2C(=O)c2ccccc2C3=O)cc2cc(Cl)ccc21` (stereo not drawn): the MIC came to 50 µg/mL (≈ 100 µM) in the assay with Streptococcus pyogenes; 100 µg/mL (≈ 201 µM) in the assay with Aspergillus clavatus; 500 µg/mL (≈ 1000 µM) in the assay with Candida albicans; 500 µg/mL (≈ 1000 µM) in the assay on Staphylococcus aureus; 62.5 µg/mL (≈ 126 µM) in the assay on Pseudomonas aeruginosa; 1000 µg/mL (≈ 2010 µM) in the assay with Aspergillus niger. Moreover, in the assay on Escherichia coli, the MIC was determined as 250 µg/mL (≈ 502 µM).

Regarding `C=CCn1c(=O)c(C2C3=C(CC(C)(C)CC3=O)OC3=C2C(=O)c2ccccc2C3=O)cc2ccccc21` (stereo not drawn), the MIC is 200 µg/mL (≈ 407 µM) in the assay with Streptococcus pyogenes; > 1000 µg/mL in the assay on Aspergillus clavatus; > 1000 µg/mL with Candida albicans; 250 µg/mL (≈ 509 µM) in the assay with Staphylococcus aureus; 100 µg/mL (≈ 203 µM) in the assay on Pseudomonas aeruginosa; > 1000 µg/mL in the assay with Aspergillus niger. In addition, the MIC in the assay on Escherichia coli was 100 µg/mL (≈ 203 µM).

In the case of `C=CCn1c(=O)c(C2C(C(=O)OC(C)C)=C(N)OC3=C2C(=O)c2ccccc2C3=O)cc2ccccc21` (stereo not drawn), the MIC is 250 µg/mL (≈ 504 µM) in the assay on Streptococcus pyogenes; > 1000 µg/mL in the assay with Aspergillus clavatus; 500 µg/mL (≈ 1010 µM) in the assay on Candida albicans; 500 µg/mL (≈ 1010 µM) in the assay on Staphylococcus aureus; 50 µg/mL (≈ 101 µM) with Pseudomonas aeruginosa; 250 µg/mL (≈ 504 µM) with Aspergillus niger. For the same molecule, the MIC in the assay on Escherichia coli stood at 200 µg/mL (≈ 403 µM).

Take `O=C(O)c1cn(C2CC2)c2cc(N3CCNCC3)c(F)cc2c1=O` [CIPROFLOXACIN]: the MIC with Streptococcus pyogenes was determined as 50 µg/mL (≈ 151 µM); in the assay on Staphylococcus aureus it was 50 µg/mL (≈ 151 µM); with Escherichia coli, 25 µg/mL (≈ 75.4 µM).

`C=CCn1c(=O)c(C2C3=C(CC(C)(C)CC3=O)OC3=C2C(=O)c2ccccc2C3=O)cc2cc(OC)ccc21` (stereo not drawn): the MIC with Streptococcus pyogenes was 250 µg/mL (≈ 479 µM); in the assay on Aspergillus clavatus, 500 µg/mL (≈ 959 µM); in the assay with Candida albicans, 1000 µg/mL (≈ 1920 µM); in the assay on Staphylococcus aureus it was 500 µg/mL (≈ 959 µM); with Pseudomonas aeruginosa, 100 µg/mL (≈ 192 µM); in the assay with Aspergillus niger, 500 µg/mL (≈ 959 µM). Moreover, the MIC with Escherichia coli was found to be 125 µg/mL (≈ 240 µM).

`C=CCn1c(=O)c(C2C3=C(CCCC3=O)OC3=C2C(=O)c2ccccc2C3=O)cc2ccccc21` (stereo not drawn): the MIC was determined as 125 µg/mL (≈ 270 µM) in the assay with Streptococcus pyogenes; 500 µg/mL (≈ 1080 µM) with Aspergillus clavatus; 250 µg/mL (≈ 539 µM) in the assay on Candida albicans; 200 µg/mL (≈ 432 µM) with Staphylococcus aureus; 250 µg/mL (≈ 539 µM) with Pseudomonas aeruginosa; 500 µg/mL (≈ 1080 µM) with Aspergillus niger. For the same molecule, in the assay on Escherichia coli, the MIC amounted to 200 µg/mL (≈ 432 µM).

As for `C=CCn1c(=O)c(C2C(C(=O)OC(C)C)=C(N)OC3=C2C(=O)c2ccccc2C3=O)cc2cc(C)ccc21` (stereo not drawn), the MIC is 500 µg/mL (≈ 979 µM) with Streptococcus pyogenes; 500 µg/mL (≈ 979 µM) in the assay with Aspergillus clavatus; > 1000 µg/mL with Candida albicans; 125 µg/mL (≈ 245 µM) in the assay with Staphylococcus aureus; 250 µg/mL (≈ 490 µM) in the assay with Pseudomonas aeruginosa; 1000 µg/mL (≈ 1960 µM) in the assay on Aspergillus niger. Further, in the assay on Escherichia coli, the MIC was 25 µg/mL (≈ 49 µM).

Take `C=CCn1c(=O)c(C2C(C(=O)OC(C)C)=C(N)OC3=C2C(=O)c2ccccc2C3=O)cc2cc(OC)ccc21` (stereo not drawn): the MIC in the assay on Streptococcus pyogenes stood at 200 µg/mL (≈ 380 µM); with Aspergillus clavatus, 500 µg/mL (≈ 950 µM); in the assay on Candida albicans, 1000 µg/mL (≈ 1900 µM); in the assay on Staphylococcus aureus, 100 µg/mL (≈ 190 µM); in the assay on Pseudomonas aeruginosa, 200 µg/mL (≈ 380 µM); in the assay on Aspergillus niger it was 500 µg/mL (≈ 950 µM). The MIC in the assay on Escherichia coli worked out at 250 µg/mL (≈ 475 µM).

In the case of `CC1(C)S[C@@H]2[C@H](NC(=O)[C@H](N)c3ccccc3)C(=O)N2[C@H]1C(=O)O` [AMPICILLIN], the minimal inhibitory concentration (MIC) with Streptococcus pyogenes is 100 µg/mL (≈ 286 µM); with Staphylococcus aureus it was 250 µg/mL (≈ 715 µM); in the assay with Escherichia coli, 100 µg/mL (≈ 286 µM).

As for `O=C(N[C@H](CO)[C@H](O)c1ccc([N+](=O)[O-])cc1)C(Cl)Cl` [CHLORAMPHENICOL], the MIC with Streptococcus pyogenes, in the assay with Staphylococcus aureus, with Pseudomonas aeruginosa and in the assay on Escherichia coli was 50 µg/mL (≈ 155 µM) each time.

In the case of `C=CCn1c(=O)c(C2C3=C(CCCC3=O)OC3=C2C(=O)c2ccccc2C3=O)cc2cc(OC)ccc21` (stereo not drawn), the MIC was 500 µg/mL (≈ 1010 µM) in the assay on Streptococcus pyogenes; 1000 µg/mL (≈ 2030 µM) with Aspergillus clavatus; 1000 µg/mL (≈ 2030 µM) in the assay on Candida albicans; 500 µg/mL (≈ 1010 µM) in the assay on Staphylococcus aureus; 20 µg/mL (≈ 40.5 µM) in the assay with Pseudomonas aeruginosa; 100 µg/mL (≈ 203 µM) in the assay with Aspergillus niger. Further, the MIC in the assay on Escherichia coli was 250 µg/mL (≈ 507 µM).

For the molecule `C=CCn1c(=O)c(C2C(C#N)=C(N)OC3=C2C(=O)c2ccccc2C3=O)cc2cc(Cl)ccc21` (stereo not drawn), the MIC in the assay with Streptococcus pyogenes was determined as 100 µg/mL (≈ 213 µM); in the assay on Aspergillus clavatus, 100 µg/mL (≈ 213 µM); with Candida albicans it was 500 µg/mL (≈ 1060 µM); in the assay on Staphylococcus aureus, 500 µg/mL (≈ 1060 µM); in the assay on Pseudomonas aeruginosa, 500 µg/mL (≈ 1060 µM); with Aspergillus niger, 1000 µg/mL (≈ 2130 µM). Further, the MIC in the assay with Escherichia coli turned out to be 200 µg/mL (≈ 426 µM).

With `COC1=CC(=O)C[C@@H](C)[C@]12Oc1c(Cl)c(OC)cc(OC)c1C2=O` [GRISEOFULVIN], the MIC with Aspergillus clavatus came to 100 µg/mL (≈ 283 µM); with Candida albicans, 500 µg/mL (≈ 1420 µM); in the assay on Aspergillus niger, 100 µg/mL (≈ 283 µM).

Take `C=CCn1c(=O)c(C2C3=C(CCCC3=O)OC3=C2C(=O)c2ccccc2C3=O)cc2cc(C)ccc21` (stereo not drawn): the MIC is 250 µg/mL (≈ 524 µM) in the assay on Streptococcus pyogenes; 1000 µg/mL (≈ 2090 µM) with Aspergillus clavatus; 500 µg/mL (≈ 1050 µM) with Candida albicans; 250 µg/mL (≈ 524 µM) in the assay with Staphylococcus aureus; 250 µg/mL (≈ 524 µM) with Pseudomonas aeruginosa; 1000 µg/mL (≈ 2090 µM) with Aspergillus niger. The MIC in the assay with Escherichia coli was found to be 500 µg/mL (≈ 1050 µM).

In the case of NYSTATIN, the MIC in the assay on Aspergillus clavatus, with Candida albicans and in the assay on Aspergillus niger was 100 µg/mL throughout.
